Laboratory results: patent US7176216B2, “7-phenylpyrazolopyridine compounds” (Eisai Co., Ltd., priority 2002, dated 2007)
Where two headings read alike, the source gives them in different places.

Key:
CYP3A4 = details: human, hepatocytes, 48 h
Experimental: Evaluation of Drug Metabolizing Enzyme (CYP3A4) Inducibility Using Cryopreserved Human Hepatocyte
Cryopreserved hepatocytes (In Vitro Technology) were rapidly thawed while stirring at 37° C., and then ice-cooled William's Medium E (10% FBS, +PSG) was slowly added to the cells prior to centrifugation at 500 rpm for 5 minutes. After removing the supernatant, the obtained hepatocytes were diluted with ice-cooled William's Medium E to a concentration of 5×10^5 cells/mL, seeded on a 48-well collagen coated plate (BD Biosciences) at 1×10^5 cells/cm^2 and incubated for about 24 hours at 37° C., 5% CO2, after which the medium was changed with Hepato-STIM™ (BD Biosciences) (+EGF, PSG, −FBS) and culture was maintained for another 24 hours under conditions of 37° C., 5% CO2. At approximately 48 hours after the cell seeding, the test compound or rifampicin (SIGMA, positive control) in the form of a diluted solution (using Hepato-STIM™ (+EGF, PSG, −FBS)) was added, hepatocyte were incubated for about 24 hours under conditions of 37° C., 5% CO2, and the culture medium was changed with medium containing a freshly prepared dilution of the test compound or rifampicin prior to further incubation for 24 hours under the same conditions. After incubation, the cells were washed once with PBS, and the total RNA was extracted using a Qiagen RNeasy Mini kit (Qiagen). The cDNA was synthesized by reverse-transcription of extracted using TaqMan Reverse Transcription Reagents (Applied Biosystems). The reverse transcription reaction was carried out using oligo dT as primer, with treatment at 25° C. for 10 minutes followed by treatment at 48° C. for 60 minutes, after which the reverse transcriptase was inactivated by treatment at 95° C. for 10 minutes. The obtained cDNA was supplied to a PCR using a Gene Amp PCR system 9700. The obtained cDNA was quantitated using an SYBR Green PCR Core Reagents kit (Applied Biosystems), and the human CYP3A4 and GAPDH mRNA was quantitated using an ABI7700 (Applied Biosystems). The abbreviations used in the test example are explained below. • FBS: Fetal Bovine Serum • PSG: Penicillin (100 U/ml), Streptomycin (100 μg/ml), Glutamine (2 mM) • EGF: Epidermal Growth Factor • GAPDH: Glyceraldehyde-3-Phosphate Dehydrogenase
(2) Calculation of CYP3A4 Inducibility:
Next, for comparison of each test run, the differences between the value of the CYP3A4 mRNA amount divided by the GAPDH mRNA amount with addition of the test compound at various concentrations and with addition of the negative control were calculated as percentages, with 100% being defined as the difference between the values of the CYP3A4 mRNA amount divided by the GAPDH mRNA amount for the positive control and negative control, to determine the inducibility of each test compound.

[1] = test system: CRF-induced cAMP production in AtT-20 cells; assay: cAMP production inhibition experiment using AtT-20 cells; assay type: cell-based; details: Mus musculus, AtT20, CRF 30 nM
Experimental: <cAMP Production Inhibition Experiment Using AtT-20 Cells>
AtT-20 cell is a cell-line derived from mouse pituitary gland tumor, which is known to respond to corticotropin releasing hormone (CRF), to produce cAMP by activation of the intracellular adenylate cyclase system, and to release adrenocorticotropic hormone (ACTH) (Biochem. Biophys. Res. Com., 106, 1364–1371, 1982). In this experiment, AtT-20 cells (1×10^5) were suspended in D-MEM (0.1% FBS) and seeded in a 96-well plate, and then 1 mM (final concentration) phosphodiesterase inhibitor (IBMX, Calbiochem) was added prior to incubation for 30 minutes at 37° C. The diluted test compound solution was then added prior to incubation for 30 minutes at 37° C., and CRF (final concentration: 30 nM) was added prior to further incubation for 30 minutes at 37° C. The cells were collected by centrifugation (1,800 rpm (630×g), 5 minutes), and then lysed with lysis buffer (0.2% dodecyltrimethylammmonium bromide), and the intracellular cAMP production was assayed by HTRF method. cAMP kit HTRF (Nihon Schering) was used for the cAMP assay.
(2) Calculation of cAMP Production Inhibitory Activity;
The cAMP production of each sample was represented as a percentage (% of control), with the CRF (final concentration: 30 nM)-added cells defined as 100% (control).

human CRFR1 = molecular target: T1, human CRFR1 (Homo sapiens, UniProt P34998); assay: CRFR binding experiment (125I-CRF, SPA, membrane fraction of CRFR1-expressing HEK293 cells); details: 100 pM 125I-CRF, read-out: CRF1 receptor binding affinity IC50
T1 construct: The full-length CRFR1 gene was obtained by PCR using human brain cDNA library; expressed in transfected cells
T1 sequence (P34998 24-415): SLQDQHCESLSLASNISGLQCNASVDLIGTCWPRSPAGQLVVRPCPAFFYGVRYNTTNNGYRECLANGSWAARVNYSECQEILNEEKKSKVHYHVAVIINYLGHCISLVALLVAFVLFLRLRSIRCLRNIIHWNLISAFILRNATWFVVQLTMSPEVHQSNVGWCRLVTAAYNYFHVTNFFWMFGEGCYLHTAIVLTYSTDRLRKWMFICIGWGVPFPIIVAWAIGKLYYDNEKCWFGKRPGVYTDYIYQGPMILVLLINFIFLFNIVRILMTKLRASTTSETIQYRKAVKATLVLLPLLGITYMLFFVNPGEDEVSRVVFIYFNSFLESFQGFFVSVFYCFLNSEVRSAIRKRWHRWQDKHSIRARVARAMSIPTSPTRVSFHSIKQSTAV
Experimental: <CRFR Binding Experiment>
The full-length CRFR1 gene was obtained by PCR using human brain cDNA library (QuickClone™ Clontech). […] The CRFR1 expression vector was introduced into HEK293 cell, and the resistant cells which proliferated in culture medium containing G418 (1 mg/ml) were cloned by the limiting dilution method. […] And the selected cells were used for the experiments.

| SMILES | % of Positive Control (CYP3A4 inducibility) (CYP3A4; 0.03 μM) | % of Positive Control (CYP3A4 inducibility) (CYP3A4; 0.1 μM) | % of Positive Control (CYP3A4 inducibility) (CYP3A4; 0.3 μM) | % of Positive Control (CYP3A4 inducibility) (CYP3A4; 1 μM) | inducibility (CYP3A4), positive control defined as 100% (CYP3A4; 1 μM) | % of Positive Control (CYP3A4 inducibility) (CYP3A4; 3 μM) | % of Positive Control (CYP3A4 inducibility) (CYP3A4; 10 μM) | IC50 [1] | IC50 (human CRFR1) |
| --- | --- | --- | --- | --- | --- | --- | --- | --- | --- |
| CCc1nn2c(-c3c(OC)cc(COC)cc3OC)cccc2c1N(CC1CCOCC1)CC1CC1 [Example 1, N-Cyclopropylmethyl-N-7-[2,6-dimethoxy-4-(methoxymethyl)phenyl]-2-ethylpyrazolo[1,5-a]pyridin-3-yl-N-tetrahydro-2H-4-pyranylmethylamine] | 6% | 7% | 12% | 20% | ≤ 40% | 36% | 65% | 4 nM |  |
| CCOCc1cc(OC)c(-c2cccc3c(N(CC4CCOCC4)CC4CC4)c(CC)nn23)c(OC)c1 [Example 3, N-Cyclopropylmethyl-N-7-[4-(ethoxymethyl)-2,6-dimethoxyphenyl]-2-ethylpyrazolo[1,5-a]pyridin-3-yl-N-tetrahydro-2H-4-pyranylmethylamine] | 3% | 3% | 7% | 25% | ≤ 40% | 23% | 34% | 5.1 nM |  |
| CCCN(CC1CCOCC1)c1c(CC)nn2c(-c3c(OC)cc(COC)cc3OC)cccc12 [Example 13, N-7-[2,6-Dimethoxy-4-(methoxymethyl)phenyl]-2-ethylpyrazolo[1,5-a]pyridin-3-yl-N-propyl-N-tetrahydro-2H-4-pyranylmethylamine] |  |  |  |  |  |  |  | 11 nM |  |
| CCCN(CC1CCOCC1)c1c(CC)nn2c(-c3c(OC)cc(COCC)cc3OC)cccc12 [Example 23, N-7-[4-(Ethoxymethyl)-2,6-dimethoxyphenyl]-2-ethylpyrazolo[1,5-a]pyridin-3-yl-N-propyl-N-tetrahydro-2H-4-pyranylmethylamine] |  |  |  |  |  |  |  | 6 nM | 50 nM |
| COCc1cc(OC)c(-c2cccc3c(N(CC4CCOCC4)CC4CC4)c(OC)nn23)c(OC)c1 [Example 47, N-Cyclopropylmethyl-N-7-[2,6-dimethoxy-4-(methoxymethyl)phenyl]-2-methoxypyrazolo[1,5-a]pyridin-3-yl-N-tetrahydro-2H-4-pyranylmethylamine] |  |  |  |  |  |  |  | 50 nM |  |
| COCc1cc(OC)c(-c2cccc3c(N(CC4CCOCC4)CC4CC4)c(SC)nn23)c(OC)c1 [Example 59, N-Cyclopropylmethyl-N-[7-[2,6-dimethoxy-4-(methoxymethyl)phenyl]-2-(methylsulfanyl)pyrazolo[1,5-a]pyridin-3-yl]-N-tetrahydro-2H-4-pyranylmethylamine] | 2% | 3% | 11% | 25% | ≤ 40% | 49% | 59% | 3.5 nM |  |
| COCc1cc(OC)c(-c2cccc3c(N(CC4CC4)CC4CCOC4)c(SC)nn23)c(OC)c1 (stereo not drawn) [Example 60, N-Cyclopropylmethyl-N-[7-[2,6-dimethoxy-4-(methoxymethyl)phenyl]-2-(methylsulfanyl)pyrazolo[1,5-a]pyridin-3-yl]-N-tetrahydro-3-furanylmethylamine] |  |  |  |  |  |  |  | 3.5 nM | 30 nM |
